Like-named read-outs stand apart in the source and are kept apart here.
Target: T1, ATR kinase (full-length ATR) (Homo sapiens, UniProt Q13535)
T1 construct: Assays were carried out at 25° C. in the presence of 5 nM full-length ATR
Assay: ATR Inhibition Assay (radioactive-phosphate incorporation)
Format: biochemical
Details: Ki(app), 5 nM full-length ATR, 10 μM ATP, 800 μM target peptide, 25° C., read-out: ATR Inhibition Ki
Procedure: Compounds were screened for their ability to inhibit ATR kinase using a radioactive-phosphate incorporation assay. Assays were carried out in a mixture of 50 mM Tris/HCl (pH 7.5), 10 mM MgCl2 and 1 mM DTT. Final substrate concentrations were 10 μM [y-33P]ATP (3mCi 33P ATP/mmol ATP, Perkin Elmer) and 800 μM target peptide ([…]).
Assays were carried out at 25° C. in the presence of 5 nM full-length ATR. An assay stock buffer solution was prepared containing all of the reagents listed above, with the exception of ATP and the test compound of interest. […] The plate was pre-incubated for 10 minutes at 25° C. and the reaction initiated by addition of 15 μL [y-33P]ATP (final concentration 10 μM).
The reaction was stopped after […] by the addition of 30 μL 0.1M phosphoric acid containing 2 mM ATP. A multiscreen phosphocellulose filter 96-well plate (Millipore, Cat no. MAPHN0B50) was pretreated with 100 μL 0.2M phosphoric acid prior to the addition of 45 μL of the stopped assay mixture. The plate was washed with 5×200 μL 0.2M phosphoric acid.
After removing mean background values for all of the data points, Ki(app) data were calculated from non-linear regression analysis of the initial rate data using the Prism software package (GraphPad Prism version 3.0cx for Macintosh, GraphPad Software, San Diego Calif., USA).

[1] = given as numeric lower bound without unit

T1 sequence (Q13535 whole entry): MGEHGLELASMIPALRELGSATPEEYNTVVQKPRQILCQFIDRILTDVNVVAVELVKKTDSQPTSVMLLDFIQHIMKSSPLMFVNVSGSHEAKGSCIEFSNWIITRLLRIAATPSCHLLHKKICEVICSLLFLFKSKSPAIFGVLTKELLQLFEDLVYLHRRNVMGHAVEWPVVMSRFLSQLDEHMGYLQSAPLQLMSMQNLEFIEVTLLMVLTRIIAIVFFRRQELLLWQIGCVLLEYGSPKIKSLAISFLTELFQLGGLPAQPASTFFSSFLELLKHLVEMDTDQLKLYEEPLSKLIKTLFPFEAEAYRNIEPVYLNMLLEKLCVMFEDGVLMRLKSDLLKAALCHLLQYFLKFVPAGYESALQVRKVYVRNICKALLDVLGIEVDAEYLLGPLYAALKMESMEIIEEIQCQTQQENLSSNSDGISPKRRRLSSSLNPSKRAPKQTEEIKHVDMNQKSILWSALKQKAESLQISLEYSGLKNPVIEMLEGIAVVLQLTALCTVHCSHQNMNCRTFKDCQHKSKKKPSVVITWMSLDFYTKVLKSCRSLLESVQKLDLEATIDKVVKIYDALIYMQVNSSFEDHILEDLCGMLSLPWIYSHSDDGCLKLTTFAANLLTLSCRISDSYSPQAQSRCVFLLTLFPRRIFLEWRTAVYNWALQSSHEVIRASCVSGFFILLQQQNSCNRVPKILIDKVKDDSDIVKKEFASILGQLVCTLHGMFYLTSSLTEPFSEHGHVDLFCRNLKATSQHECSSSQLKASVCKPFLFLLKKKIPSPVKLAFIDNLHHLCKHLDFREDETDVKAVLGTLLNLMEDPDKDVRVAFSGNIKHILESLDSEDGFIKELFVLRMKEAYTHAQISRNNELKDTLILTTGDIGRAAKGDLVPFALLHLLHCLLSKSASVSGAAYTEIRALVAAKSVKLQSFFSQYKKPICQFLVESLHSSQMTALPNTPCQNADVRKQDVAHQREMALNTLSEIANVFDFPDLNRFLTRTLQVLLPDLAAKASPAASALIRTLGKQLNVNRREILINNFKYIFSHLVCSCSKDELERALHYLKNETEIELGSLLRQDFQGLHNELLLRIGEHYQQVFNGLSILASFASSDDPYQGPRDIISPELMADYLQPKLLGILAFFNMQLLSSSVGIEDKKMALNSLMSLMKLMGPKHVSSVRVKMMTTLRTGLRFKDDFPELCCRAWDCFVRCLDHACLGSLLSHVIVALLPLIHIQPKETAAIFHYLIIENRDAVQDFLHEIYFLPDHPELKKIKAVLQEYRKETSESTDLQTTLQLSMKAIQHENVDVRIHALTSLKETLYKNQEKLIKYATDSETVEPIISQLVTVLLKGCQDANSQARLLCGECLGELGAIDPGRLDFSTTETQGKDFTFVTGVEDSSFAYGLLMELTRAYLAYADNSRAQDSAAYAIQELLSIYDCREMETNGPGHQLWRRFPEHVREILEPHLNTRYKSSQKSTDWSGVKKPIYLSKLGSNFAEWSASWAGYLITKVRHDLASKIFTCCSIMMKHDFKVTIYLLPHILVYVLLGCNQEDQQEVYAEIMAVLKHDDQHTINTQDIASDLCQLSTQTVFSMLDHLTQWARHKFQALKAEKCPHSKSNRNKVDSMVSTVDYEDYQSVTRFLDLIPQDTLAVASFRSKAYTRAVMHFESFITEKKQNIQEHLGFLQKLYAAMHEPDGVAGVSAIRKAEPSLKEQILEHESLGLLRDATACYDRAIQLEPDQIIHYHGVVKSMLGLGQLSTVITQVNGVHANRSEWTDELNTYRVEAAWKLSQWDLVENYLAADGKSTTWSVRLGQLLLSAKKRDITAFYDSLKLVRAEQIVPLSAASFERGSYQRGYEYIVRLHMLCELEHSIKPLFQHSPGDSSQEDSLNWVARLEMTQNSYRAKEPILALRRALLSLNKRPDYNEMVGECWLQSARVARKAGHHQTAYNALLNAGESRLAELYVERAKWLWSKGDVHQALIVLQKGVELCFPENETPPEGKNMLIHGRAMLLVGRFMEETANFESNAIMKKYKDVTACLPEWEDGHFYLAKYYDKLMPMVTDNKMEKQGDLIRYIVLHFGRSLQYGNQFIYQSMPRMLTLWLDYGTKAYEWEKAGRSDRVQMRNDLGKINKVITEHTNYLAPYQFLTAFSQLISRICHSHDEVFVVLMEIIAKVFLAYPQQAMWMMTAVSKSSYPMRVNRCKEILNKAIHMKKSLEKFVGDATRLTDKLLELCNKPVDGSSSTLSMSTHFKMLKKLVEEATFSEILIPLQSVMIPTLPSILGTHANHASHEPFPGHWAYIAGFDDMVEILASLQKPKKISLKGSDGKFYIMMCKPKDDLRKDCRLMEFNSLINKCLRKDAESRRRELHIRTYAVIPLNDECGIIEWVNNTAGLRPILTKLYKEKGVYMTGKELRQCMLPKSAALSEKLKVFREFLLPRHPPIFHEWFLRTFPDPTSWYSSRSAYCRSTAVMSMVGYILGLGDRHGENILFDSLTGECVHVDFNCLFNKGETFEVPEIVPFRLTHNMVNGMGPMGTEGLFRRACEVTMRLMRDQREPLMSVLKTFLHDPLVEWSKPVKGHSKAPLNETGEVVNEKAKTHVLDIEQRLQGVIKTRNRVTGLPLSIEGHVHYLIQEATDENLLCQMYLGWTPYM

Row | Ki (class symbols) [nM] | Ki [1] [nM] | Structure (SMILES)
1 | 100 to 500 |  | CC(O)c1cccc(NC(=O)c2c[nH]c3ncc(-c4ccc(S(=O)(=O)C(C)C)cc4)nc23)c1 (stereo not shown) [Compound I-34, N-[3-(1-hydroxyethyl)phenyl]-2-(4-isopropylsulfonylphenyl)-5H-pyrrolo[2,3-b]pyrazine-7-carboxamide]
2 | 500 to 5000 |  | CC(C)S(=O)(=O)c1ccc(-c2cnc3[nH]cc(C(=O)N[C@@H](C)c4ccccc4)c3n2)cc1 [Compound I-35, 2-(4-isopropylsulfonylphenyl)-N-[(1S)-1-phenylethyl]-5H-pyrrolo[2,3-b]pyrazine-7-carboxamide]
3 | < 100 |  | CC(C)S(=O)(=O)c1ccc(-c2cnc3[nH]cc(C(=O)Nc4cccc(C(N)=O)c4)c3n2)cc1 [Compound I-36, N-(3-carbamoylphenyl)-2-(4-isopropylsulfonylphenyl)-5H-pyrrolo[2,3-b]pyrazine-7-carboxamide]
4 | < 100 |  | CC(C)S(=O)(=O)c1ccc(-c2cnc3[nH]cc(C(=O)NC[C@H](O)c4ccccc4)c3n2)cc1 [Compound I-37, N-[(2R)-2-hydroxy-2-phenyl-ethyl]-2-(4-isopropylsulfonylphenyl)-5H-pyrrolo[2,3-b]pyrazine-7-carboxamide]
5 | 500 to 5000 |  | CC(C)S(=O)(=O)c1ccc(-c2cnc3[nH]cc(C(=O)NCc4ccc(N5CCOCC5)cc4)c3n2)cc1 [Compound I-38, 2-(4-isopropylsulfonylphenyl)-N-[(4-morpholinophenyl)methyl]-5H-pyrrolo[2,3-b]pyrazine-7-carboxamide]
6 |  | > 250 | CC(C)S(=O)(=O)c1ccc(-c2cnc3[nH]cc(C(=O)N4CCCCC4)c3n2)cc1 [Compound I-39, [2-(4-isopropylsulfonylphenyl)-5H-pyrrolo[2,3-b]pyrazin-7-yl]-(1-piperidyl)methanone]
7 | 500 to 5000 |  | CC(C)S(=O)(=O)c1ccc(-c2cnc3[nH]cc(C(=O)N4CCCC4CO)c3n2)cc1 (stereo not shown) [Compound I-40, [2-(hydroxymethyl)pyrrolidin-1-yl]-[2-(4-isopropylsulfonylphenyl)-5H-pyrrolo[2,3-b]pyrazin-7-yl]methanone]
8 | < 100 |  | CC(C)S(=O)(=O)c1ccc(-c2cnc3[nH]cc(C(=O)Nc4ccccc4C#N)c3n2)cc1 [Compound I-41, N-(2-cyanophenyl)-2-(4-isopropylsulfonylphenyl)-5H-pyrrolo[2,3-b]pyrazine-7-carboxamide]
9 | < 100 |  | CC(C)S(=O)(=O)c1ccc(-c2cnc3[nH]cc(C(=O)NC(CO)c4ccccc4)c3n2)cc1 (stereo not shown) [Compound I-42, N-(2-hydroxy-1-phenyl-ethyl)-2-(4-isopropylsulfonylphenyl)-5H-pyrrolo[2,3-b]pyrazine-7-carboxamide]
10 | < 100 |  | CC(C)S(=O)(=O)c1ccc(-c2cnc3[nH]cc(C(=O)Nc4noc5ccccc45)c3n2)cc1 [Compound I-43, N-(1,2-benzoxazol-3-yl)-2-(4-isopropylsulfonylphenyl)-5H-pyrrolo[2,3-b]pyrazine-7-carboxamide]
11 | 100 to 500 |  | CC(C)S(=O)(=O)c1ccc(-c2cnc3[nH]cc(C(=O)NC4(CO)CCCC4)c3n2)cc1 [Compound I-44, N-[1-(hydroxymethyl)cyclopentyl]-2-(4-isopropylsulfonylphenyl)-5H-pyrrolo[2,3-b]pyrazine-7-carboxamide]
12 | < 100 |  | CC(C)S(=O)(=O)c1ccc(-c2cnc3[nH]cc(C(=O)N[C@H](C)c4ccccc4)c3n2)cc1 [Compound I-45, 2-(4-isopropylsulfonylphenyl)-N-[(1R)-1-phenylethyl]-5H-pyrrolo[2,3-b]pyrazine-7-carboxamide]
13 |  | > 250 | CC(C)S(=O)(=O)c1ccc(-c2cnc3[nH]cc(C(=O)NCc4cccc(Cl)c4)c3n2)cc1 [Compound I-46, N-[(3-chlorophenyl)methyl]-2-(4-isopropylsulfonylphenyl)-5H-pyrrolo[2,3-b]pyrazine-7-carboxamide]
14 |  | > 250 | CC(C)S(=O)(=O)c1ccc(-c2cnc3[nH]cc(C(=O)Nc4ccc(C(N)=O)cc4)c3n2)cc1 [Compound I-47, N-(4-carbamoylphenyl)-2-(4-isopropylsulfonylphenyl)-5H-pyrrolo[2,3-b]pyrazine-7-carboxamide]
15 | < 100 |  | CC(C)S(=O)(=O)c1ccc(-c2cnc3[nH]cc(C(=O)NCc4ccccc4Cl)c3n2)cc1 [Compound I-48, N-[(2-chlorophenyl)methyl]-2-(4-isopropylsulfonylphenyl)-5H-pyrrolo[2,3-b]pyrazine-7-carboxamide]
16 | < 100 |  | CC(C)S(=O)(=O)c1ccc(-c2cnc3[nH]cc(C(=O)NCc4ccc(N(C)C)cc4)c3n2)cc1 [Compound I-49, N-[(4-dimethylaminophenyl)methyl]-2-(4-isopropylsulfonylphenyl)-5H-pyrrolo[2,3-b]pyrazine-7-carboxamide]

Row | Ki (class symbols) [nM] | Ki [1] [nM] | Structure (SMILES)
17 | 100 to 500 |  | CC(C)S(=O)(=O)c1ccc(-c2cnc3[nH]cc(C(=O)Nc4ccccc4CCO)c3n2)cc1 [Compound I-50, N-[2-(2-hydroxyethyl)phenyl]-2-(4-isopropylsulfonylphenyl)-5H-pyrrolo[2,3-b]pyrazine-7-carboxamide]
18 | 500 to 5000 |  | CC(C)S(=O)(=O)c1ccc(-c2cnc3[nH]cc(C(=O)N[C@@H](CCO)c4ccccc4)c3n2)cc1 [Compound I-51, N-[(1S)-3-hydroxy-1-phenyl-propyl]-2-(4-isopropylsulfonylphenyl)-5H-pyrrolo[2,3-b]pyrazine-7-carboxamide]
19 | 100 to 500 |  | CC(C)S(=O)(=O)c1ccc(-c2cnc3[nH]cc(C(=O)NCc4ccccn4)c3n2)cc1 [Compound I-52, 2-(4-isopropylsulfonylphenyl)-N-(2-pyridylmethyl)-5H-pyrrolo[2,3-b]pyrazine-7-carboxamide]
20 | < 100 |  | CC(C)S(=O)(=O)c1ccc(-c2cnc3[nH]cc(C(=O)NC4CCc5ccccc54)c3n2)cc1 (stereo not shown) [Compound I-53, N-indan-1-yl-2-(4-isopropylsulfonylphenyl)-5H-pyrrolo[2,3-b]pyrazine-7-carboxamide]
21 | < 100 |  | Cc1cccc(Cl)c1CNC(=O)c1c[nH]c2ncc(-c3ccc(S(=O)(=O)C(C)C)cc3)nc12 [Compound I-54, N-[(2-chloro-6-methyl-phenyl)methyl]-2-(4-isopropylsulfonylphenyl)-5H-pyrrolo[2,3-b]pyrazine-7-carboxamide]
22 | < 100 |  | Cc1cc(NC(=O)c2c[nH]c3ncc(-c4ccc(S(=O)(=O)C(C)C)cc4)nc23)[nH]n1 [Compound I-55, 2-(4-isopropylsulfonylphenyl)-N-(3-methyl-1H-pyrazol-5-yl)-5H-pyrrolo[2,3-b]pyrazine-7-carboxamide]
23 | 100 to 500 |  | CC(C)S(=O)(=O)c1ccc(-c2cnc3[nH]cc(C(=O)N[C@@H](CO)c4ccccc4)c3n2)cc1 [Compound I-56, N-[(1R)-2-hydroxy-1-phenyl-ethyl]-2-(4-isopropylsulfonylphenyl)-5H-pyrrolo[2,3-b]pyrazine-7-carboxamide]
24 | < 100 |  | CC(C)S(=O)(=O)c1ccc(-c2cnc3[nH]cc(C(=O)NCc4ccc(N)cc4)c3n2)cc1 [Compound I-57, N-[(4-aminophenyl)methyl]-2-(4-isopropylsulfonylphenyl)-5H-pyrrolo[2,3-b]pyrazine-7-carboxamide]
25 | 500 to 5000 |  | COC[C@H](NC(=O)c1c[nH]c2ncc(-c3ccc(S(=O)(=O)C(C)C)cc3)nc12)c1ccccc1 [Compound I-58, 2-(4-isopropylsulfonylphenyl)-N-[(1R)-2-methoxy-1-phenyl-ethyl]-5H-pyrrolo[2,3-b]pyrazine-7-carboxamide]
26 | 100 to 500 |  | CC(C)S(=O)(=O)c1ccc(-c2cnc3[nH]cc(C(=O)NCc4cccnc4)c3n2)cc1 [Compound I-59, 2-(4-isopropylsulfonylphenyl)-N-(3-pyridylmethyl)-5H-pyrrolo[2,3-b]pyrazine-7-carboxamide]
27 | 100 to 500 |  | CC(C)S(=O)(=O)c1ccc(-c2cnc3[nH]cc(C(=O)NCc4ccncc4)c3n2)cc1 [Compound I-60, 2-(4-isopropylsulfonylphenyl)-N-(4-pyridylmethyl)-5H-pyrrolo[2,3-b]pyrazine-7-carboxamide]
28 | < 100 |  | CC(C)S(=O)(=O)c1ccc(-c2cnc3[nH]cc(C(=O)NCCc4ccccn4)c3n2)cc1 [Compound I-61, 2-(4-isopropylsulfonylphenyl)-N-[2-(2-pyridyl)ethyl]-5H-pyrrolo[2,3-b]pyrazine-7-carboxamide]
29 | < 100 |  | CC(C)S(=O)(=O)c1ccc(-c2cnc3[nH]cc(C(=O)NC[C@@H](O)c4ccccc4)c3n2)cc1 [Compound I-62, N-[(2S)-2-hydroxy-2-phenyl-ethyl]-2-(4-isopropylsulfonylphenyl)-5H-pyrrolo[2,3-b]pyrazine-7-carboxamide]
30 | < 100 |  | CC(C)S(=O)(=O)c1ccc(-c2cnc3[nH]cc(C(=O)NCC4CCCO4)c3n2)cc1 (stereo not shown) [Compound I-63, 2-(4-isopropylsulfonylphenyl)-N-(tetrahydrofuran-2-ylmethyl)-5H-pyrrolo[2,3-b]pyrazine-7-carboxamide]
31 | < 100 |  | Cc1ccc(NC(=O)c2c[nH]c3ncc(-c4ccc(S(=O)(=O)C(C)C)cc4)nc23)cc1F [Compound I-64, N-(3-fluoro-4-methyl-phenyl)-2-(4-isopropylsulfonylphenyl)-5H-pyrrolo[2,3-b]pyrazine-7-carboxamide]

From patent publication US9096602B2, “Substituted pyrrolo[2,3-B]pyrazines as ATR kinase inhibitors” (Vertex Pharmaceuticals Incorporated, priority 2011, dated 2015)
